Paper PMC6839174, “Targeting the Formyl Peptide Receptor type 1 to prevent the adhesion of ovarian cancer cells onto mesothelium and subsequent invasion” (Journal of Experimental & Clinical Cancer Research : CR, 2019)
Non-standard residues stand in square brackets, D forms with d. No end group written: not given here. *: point of attachment. Nle = CCCC[C@H](N)C(=O)O; For = O=C*

How the values were obtained:
[1] = system: FPR1; test: Agonist-dependent FPR1 internalization in EOC cells (confocal microscopy); type: cell-based, human; conditions: primary EOC cells, 10 nM fluorescent peptide, 30 min at 37 °C
Description: Cells (2 × 10^4/sample) were seeded on glass coverslips and cultured for 24 h in growth medium. Then, slides were washed with PBS, fixed with 2.5% formaldehyde in PBS for 10 min at 4 °C and incubated for 1 h at 4 °C with 2 μg/mL R4 anti-uPAR mAb or 1:100 rabbit anti-FPR1 Ab (#113531Ab, Abcam). Then, 1:700 goat Alexa Fluor 488 anti-rabbit IgG, or rabbit Alexa Fluor 488-conjugated F(ab’)2 fragment of anti-mouse IgG (Molecular Probes) were applied to slides at 23 °C for 40 min. Nuclear staining was performed with 4-6-diamidino-2-phenylindole dye (DAPI). To analyze agonist-dependent FPR1 internalization, cells grown on glass slides were exposed to 10 nM FITC-fMLF or 10 nM FITC-RI-3 diluted in serum-free DMEM for 30 min at 37 °C as described. After extensive washing with PBS, coverslips were mounted using 20% (w/v) mowiol, visualized with the 510 META-LSM confocal microscope (Carl Zeiss).

[2] = system: FPR1; test: Ligand binding assay with FITC-RI-3 on primary EOC cells; parameters: species or system human; conditions: for prevention of FITC-RI-3 binding by unlabeled peptide: primary EOC cells, 100 nM peptide pre-incubated 60 min at 4 °C, then 10 nM FITC-RI-3 60 min at 4 °C, three experiments
Description: EOC cells were pre-incubated with diluents or the indicated unlabeled peptides for 60 min at 4 °C (to avoid internalization), extensively rinsed with phosphate buffer saline (PBS), exposed to 10 nM FITC-RI-3 diluted in PBS, for additional 60 min at 4 °C and again rinsed with PBS. Quantification of cell associated fluorescence was assessed by reading cells with the fluorescence plate reader Victor 3. The experiments were performed three times in duplicate.

[3] = system: vitronectin receptor; parameters: method as in PMID 15866865, PMID 20880257; conditions: inside-out mechanism involving PKC, AKT and MAPK; ref [26], [28]; cited from earlier work
[4] = system: SKOV-3 cells; test: Adhesion of SKOV-3 cells onto extracellular matrix proteins (24-well plates, cell counting); type: cell-based, Human; conditions: SKOV-3 pre-incubated with 100 nM peptide 30 min at 37 °C, 2 h; for cell adhesion onto Coll, Fn or Lm after desensitization: collagen, fibronectin, laminin; for cell adhesion onto Vn after desensitization: vitronectin, means ± SD of three independent experiments
Description: Adhesion assays were performed using 24 multi-well plates coated with 1% BSA, 5 μg mL vitronectin (Vn), 5 μg mL fibronectin (Fn), 5 μg mL laminin (Lm) or 15 μg mL collagen (Coll) diluted in serum-free medium. Sub-confluent cells were harvested by a mild trypsinization, incubated with 10% FBS / DMEM for 1 h at 37 °C, 5% CO2, acid treated with a buffer containing 50 mM glycin-HC1, 0.1 M NaCl, pH 3 for 4 min at 22 °C, to remove receptor-bound ligands, and counted. Viable cells (2 × 10^5 cells per well) were plated in serum-free medium, in the absence or presence of 2 μg/mL R3 mAb recognizing the DI uPAR domain, 2 μg/mL399 anti-uPAR (American Diagnostica), 2 μg/mL anti-uPAR84-95 (PRIMM), 2 μg/mL anti-α-tubulin (Cell Signaling) Abs or 10 nM RI-3, and allowed to adhere for 2 h at 37 °C, 5% CO2. […] At the end of the assay, adherent cells were removed with 0.05% trypsin, and counted. The number of adherent cells was expressed as a percentage of the basal cell adhesion (CTRL). The experiments were performed at least three times in triplicate.

[5] = system: EOC cells; test: EOC cell adhesion to and crossing of mesothelial cell monolayers (summary statement); type: cell-based, human; conditions: EOC cells exposed to RI-3 or desensitized with an excess of SRSRY
Description: HPMCs (1 × 10^5 cells/well) suspended in growth medium, were seeded in 24-well plates and allowed to adhere for about 20 h until they form a confluent monolayer, prior to seeding GFP-tagged EOC cells suspended in growth medium plus diluents or 10 nM RI-3. At the indicated times, plates were accurately washed with PBS and cell-associated fluorescence was assessed by a fluorescence plate reader a fluorescence plate reader (Victor 3, Perkin Elmer), using 485 nm excitation and 535 nm emission filters. The experiments were performed three times in triplicate.
HPMCs (5 × 10^3 cells/well) suspended in growth medium, were seeded in E-16-well plates and allow to adhere for 18–20 h until they form a confluent monolayer, prior to seeding EOC cells (2 × 10^4 cells/well) in growth medium plus/minus 10 nM RI-3. When HPMCs are challenged with invading cells, there is a drop in electrical resistance within 2–4 h which is monitored in real-time as the Cell Index changes due to the rupture of mesothelium. The experiments were performed three times in quadruplicate.

[6] = system: SKOV-3 cells; test: Adhesion kinetic of SKOV-3 cells onto Vn monitored in real time (xCELLigence); type: cell-based, Human; conditions: SKOV-3 pre-exposed to 100 nM peptide, 2 h, cell index, quadruplicate representative of 3 replicates
Description: This assay was performed using E-16-well plates and the xCELLigence Real Time Cell Analysis technology. Bottom wells were coated with serum-free medium, 5 μg mL Vn, 5 μg mL Fn, 5 μg mL Lm or 15 μg mL Coll diluted in serum-free medium prior to seeding cells (1 × 10^4 cells/well) suspended in serum-free medium. Cells that adhere to the bottom of plates cause impedance changes which are proportional to the number of cells. The impedance value of each well was automatically monitored in real-time for at least 2 h and expressed as a cell index value. The experiments were performed three times in quadruplicate.

[7] = system: cell migration and ECM attachment; conditions: independently of the uPA catalytic activity; ref [14], [24]–[26]; cited from earlier work
From the text: Ovarian cancer cells detach from the primary tumor and float in the ascitic fluid as single cells or multicellular, chemo-resistant spheroids. Then, floating cancer cells must resist anoikis triggered by lack of attachment to the mesothelium to evade clearance through the peritoneal lymphatics.

[8] = system: FPR1; conditions: 100 nM peptide, 30 min at 37 °C; ref [37], [38]; cited from earlier work
[9] = system: cell migration; conditions: FITC-RI-3, compared with non-fluorescent peptide; ref [38]; cited from earlier work
From the text: In order to obtain primary cultures of EOC cells, representative fragments of tissue samples were fragmented and cells recovered, as described in the Methods. By enzymatic digestion of a HGSC tissue sample (patient #5), a primary cell culture expressing high levels of both uPAR and FPR1 on cell surface as shown by IHC, was obtained (Figs. 4 and 5a). Subsequent sub-cloning of isolated cell clusters (Fig. 5b) followed by five passages allowed us to obtain an adherent, homogeneous, CD326 positive cell population. These EOC cells express a considerable amount of both uPAR and FPR1 as shown by West ...

## For-[Nle]LF[Nle]YK [FITC-fMLF, fluorescein conjugate hexapeptide Formyl-Nle-Leu-Phe-Nle-Tyr-Lys, reference compound]
[1]
  FPR1 internalization: caused FPR1 internalization

## Ser-Arg-Ser-Arg-Tyr [SRSRY, synthetic shorter pentapeptide uPAR88–92]
[2]
  prevention of FITC-RI-3 binding by unlabeled peptide: prevented
[3]
  FPR1 interaction activating the vitronectin receptor: internalizes and activates the vitronectin receptor
[4]
  cell adhesion onto Coll, Fn or Lm after desensitization: not onto Coll, Fn or Lm
  cell adhesion onto Vn after desensitization: lose the ability to adhere onto Vn
[5]
  ability to cross mesothelial cell monolayers (abstract): losing the ability to cross them
[6]
  adhesion onto Vn in real time after desensitization: abrogates cell capability to adhere onto Vn
[7]
  regulation of cell migration and ECM attachment: potent regulators of cell migration and ECM attachment
[8]
  availability of FPR1 on cell surface after desensitization: unavailability of FPR1 on cell surface

## uPAR84–95: The domain boundary between DI-DII (uPAR84–95 sequence) (AVTYSRSRYLEC; UniProt Q03405 106-117, looked up, fragment)
[3]
  FPR1 interaction activating the vitronectin receptor: internalizes and activates the vitronectin receptor
[7]
  regulation of cell migration and ECM attachment: potent regulators of cell migration and ECM attachment

## N-Formyl-L-methionyl-L-leucyl-L-phenylalanine [fMLF]
[2]
  prevention of FITC-RI-3 binding by unlabeled peptide: prevented
[4]
  cell adhesion onto Coll, Fn or Lm after desensitization: not onto Coll, Fn or Lm
  cell adhesion onto Vn after desensitization: lose the ability to adhere onto Vn
[6]
  adhesion onto Vn in real time after desensitization: abrogates cell capability to adhere onto Vn
[8]
  availability of FPR1 on cell surface after desensitization: unavailability of FPR1 on cell surface

## Ac-(D)-Tyr-(D)-Arg-Aib-(D)-Arg-Ahx-Lys (N^ɛ-FITC)-NH2 [FITC-RI-3, fluorescein-conjugate of RI-3]
[2]; primary EOC cells (patient #5), 10 nM FITC-RI-3 in PBS, 60 min at 4 °C, fluorescence
  binding of FITC-RI-3 to EOC cell surface: specific, saturable RI-3 uptake on EOC cell surface
[9]
  FPR1 binding and inhibition of cell migration: binding FPR1 and inhibiting cell migration like the non-fluorescent peptide
[1]
  FPR1 internalization: little or no internalization

## ARARY [control peptide ARARY]
[6]
  adhesion onto Vn in real time after desensitization: ineffective
